Patent publication US6500466B2, “Chlorhexidine formulations, new chlorhexidine salts, solutions containing these and their use” (Degussa AG, priority 1998, dated 2002)
Blank lines part the entries; values can stand above or below the compound they belong to.

What was measured:
[1] = background statement; cited from earlier work
[2] = Storage trials: production of p-chloroaniline in aqueous 20 wt. % solutions and in powdered mixtures (FIG. 1, FIG. 2); type: physicochemical; settings: aqueous solution stored at constant 40° C.
From the text: The composition and appearance of gluconate solutions are subject to the requirements of the European Pharmacopoeia and the American Pharmacopoeia. One of the purity requirements is a concentration of p-chloroaniline limited to 500 ppm. In a reaction which is the reverse of forming the chlorhexidine base from hexamethylenebicyanoguanidine and p-chloroaniline, p-chloroaniline can be reversibly eliminated from these solutions on dissolving the base in D(+) glucono-6-lactone, the internal ester of D(+)-gluconic acid, wherein the solutions discolor and become increasingly yellow to brown. Decomposition of chlorhexidine solutions depends on the pH of the solution and in particular on the storage temperature. Tests show (FIG. 1), that the permissible p-chloroaniline values are exceeded after about one month when stored at a constant temperature of 40° C. Solutions of CHD-gluconate which are stable over the long-term have not hitherto been disclosed. The use of these solutions in regions with a tropical climate is therefore a problem which has not hitherto been resolved satisfactorily. Therefore, there is a need for chlorhexidine salt solutions which tend to decompose to only a small extent when used under extreme climatic conditions, in particular at high temperatures.
The problem of long-term p-chloroaniline production cannot be solved by the invention of new anions. […]

[3] = Light sensitivity and stability compared with the gluconate; type: physicochemical

Compound: [H]/N=C(\N/C(=N/[H])NCCCCCCNC(=N)NC(=N)Nc1ccc(Cl)cc1)Nc1ccc(Cl)cc1 [Chlorhexidine, 1,1′-hexamethylene-bis-[5,4-chlorophenyl]-biguanide]
solubility in water [1]: very low solubility in water

time after which permissible p-chloroaniline values (500 ppm) are exceeded [2]: about one
Compound: N=C(NCCCCCCNC(=N)NC(=N)Nc1ccc(Cl)cc1)NC(=N)Nc1ccc(Cl)cc1.O=C(O)[C@H](O)[C@@H](O)[C@H](O)[C@H](O)CO.O=C(O)[C@H](O)[C@@H](O)[C@H](O)[C@H](O)CO [Chlorhexidine digluconate]

light sensitivity relative to the gluconate [3]: more light sensitive
stability relative to the gluconate [3]: more unstable than the gluconate
Compound: chlorhexidine ascorbate
